Drawing on PubChem BioAssay AID256 (DTP/NCI, 2004), this text covers T/C for 27 compounds.

For the assay, the system named is CD2F1 mice, L1210 leukemia ip, survival T/C. Put plainly: NCI In Vivo Anticancer Drug Screen. Data for tumor model L1210 Leukemia (intraperitoneal) in CD2F1 (CDF1) mice. To be noted: higher = longer survival. A digest of the protocol:
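Antitumor effect is scored in animals hosting a serially transplanted tumor. Values compare compound-dosed animals against vehicle-only controls as a simple quotient.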

Where [1] appears, read: endpoint: mean survival time, dose: 100.0 mg/kg/injection, schedule: Q04DX003 (ip), vehicle: Klucel (hydroxypropylcellulose) (HPC).
[2] abbreviates: endpoint: mean survival time, dose: 100.0 mg/kg/injection, schedule: Q01DX001 (ip), vehicle: saline with Tween-80.
The mark [3] stands for this setting: endpoint: mean survival time, dose: 200.0 mg/kg/injection, schedule: Q01DX001 (ip), vehicle: saline with Tween-80.
Setting [4] is: endpoint: mean survival time, dose: 400.0 mg/kg/injection, schedule: Q01DX001 (ip), vehicle: saline with Tween-80.
The mark [5] stands for this setting: endpoint: mean survival time, dose: 100.0 mg/kg/injection, schedule: Q01DX001 (ip), vehicle: saline.
The mark [6] stands for this setting: endpoint: mean survival time, dose: 200.0 mg/kg/injection, schedule: Q01DX001 (ip), vehicle: saline.
The mark [7] stands for this setting: endpoint: mean survival time, dose: 400.0 mg/kg/injection, schedule: Q01DX001 (ip), vehicle: saline.
The mark [8] stands for this setting: endpoint: mean survival time, dose: 100.0 mg/kg/injection, schedule: Q04DX003 (ip), vehicle: saline with Tween-80.
Where [9] appears, read: endpoint: mean survival time, dose: 200.0 mg/kg/injection, schedule: Q04DX003 (ip), vehicle: saline with Tween-80.
[10] abbreviates: endpoint: mean survival time, dose: 400.0 mg/kg/injection, schedule: Q04DX003 (ip), vehicle: saline with Tween-80.
Setting [11] is: endpoint: mean survival time, dose: 100.0 mg/kg/injection, schedule: Q04DX002 (ip), vehicle: saline with Tween-80.
The mark [12] stands for this setting: endpoint: mean survival time, dose: 200.0 mg/kg/injection, schedule: Q04DX002 (ip), vehicle: saline with Tween-80.
Where [13] appears, read: endpoint: mean survival time, dose: 50.0 mg/kg/injection, schedule: Q01DX009 (ip), vehicle: saline with Tween-80.
[14] abbreviates: endpoint: mean survival time, dose: 100.0 mg/kg/injection, schedule: Q01DX009 (ip), vehicle: saline with Tween-80.
Setting [15] is: endpoint: mean survival time, dose: 200.0 mg/kg/injection, schedule: Q01DX009 (ip), vehicle: saline with Tween-80.
[16] abbreviates: endpoint: mean survival time, dose: 50.0 mg/kg/injection, schedule: Q04DX003 (ip), vehicle: Klucel (hydroxypropylcellulose) (HPC).
Setting [17] is: endpoint: mean survival time, dose: 200.0 mg/kg/injection, schedule: Q04DX003 (ip), vehicle: Klucel (hydroxypropylcellulose) (HPC).
[18] abbreviates: endpoint: mean survival time, dose: 400.0 mg/kg/injection, schedule: Q04DX002 (ip), vehicle: saline with Tween-80.

Values joined by “and” are separate entries in the source; they are usually repeats but may differ in a detail not shown here. Equal values may be shown once. Toxic doses and inconclusive results are not listed.

Turning to `CCOC(=O)c1nc(N)c2c(CC#N)nn(-c3ccccc3)c2n1`, the T/C is 90 % of control (endpoint: mean survival time, dose: 12.5 mg/kg/injection, schedule: Q01DX005 (ip), vehicle: other); 93 % of control (endpoint: mean survival time, dose: 25.0 mg/kg/injection, schedule: Q01DX005 (ip), vehicle: other); 93 % of control (endpoint: mean survival time, dose: 50.0 mg/kg/injection, schedule: Q01DX005 (ip), vehicle: other); 87 % of control (endpoint: mean survival time, dose: 100.0 mg/kg/injection, schedule: Q01DX005 (ip), vehicle: other); 93 % of control (endpoint: mean survival time, dose: 200.0 mg/kg/injection, schedule: Q01DX005 (ip), vehicle: other).
With `NNC(=O)c1ccc(N)cc1`, the T/C under setting [1] was 95 % of control.
Consider `O=C(O)c1ccc([N+](=O)[O-])nc1`, for which the T/C is, setting by setting: under setting [2], 91 % of control; under setting [3], 95 % of control; under setting [4], 93 % of control.
For `NC(=O)NC(S(=O)(=O)O)S(=O)(=O)O`, the T/C is 96 % of control under setting [5], 101 % of control under setting [6] and 101 % of control under setting [7].
In the case of `CC(C)(Br)C(=O)c1ccco1`, the T/C is 101 % of control (endpoint: mean survival time, dose: 100.0 mg/kg/injection, schedule: Q04DX003 (ip), vehicle: saline sonified); 102 % of control (endpoint: mean survival time, dose: 200.0 mg/kg/injection, schedule: Q04DX003 (ip), vehicle: saline sonified); 95 % of control (endpoint: mean survival time, dose: 400.0 mg/kg/injection, schedule: Q04DX003 (ip), vehicle: saline sonified).
Regarding `CC(C)C1CCC(C)(Cl)C2CCC(C)(Cl)CC12` (stereo not drawn), the T/C is 96 % of control under setting [8]; 104 % of control (endpoint: mean survival time, dose: 100.0 mg/kg/injection, schedule: Q04DX003 (ip), vehicle: saline); 91 % of control under setting [9]; 102 % of control (endpoint: mean survival time, dose: 200.0 mg/kg/injection, schedule: Q04DX003 (ip), vehicle: saline); 93 % of control under setting [10]; 95 % of control (endpoint: mean survival time, dose: 400.0 mg/kg/injection, schedule: Q04DX003 (ip), vehicle: saline).
For `O=C(O)c1ccccc1O.[Fe]`, the T/C under setting [6] is 112 % of control.
On to `COC1OC(CCl)C(Cl)C2OS(=O)(=O)OC12` (stereo not drawn), for which the T/C by setting is: under setting [5], 97 % of control; under setting [6], 100 % of control; under setting [7], 96 % of control.
With `CC1=C(CCC#N)C(=O)C(CCC#N)C(C)(C)C1` (stereo not drawn), the T/C is, setting by setting: under setting [11], 94 % of control; under setting [12], 89 % of control.
In the case of `CC(=O)OCC1OC(OC2C(COC(C)=O)OC(Sc3ccc(C)cc3)C(OC(C)=O)C2OC(C)=O)C(OC(C)=O)C(OC(C)=O)C1OC(C)=O` (stereo not drawn), the T/C runs as follows: under setting [8], 97 % of control; under setting [9], 91 % of control; under setting [10], 94 % of control.
As to `CCCN(CCC)CCCC#N`, the T/C under setting [13] was 100 % of control and the T/C under setting [14] is 101 % of control.
Consider `Cc1sc(N)c(C#N)c1C`, for which the T/C is 102 % of control (endpoint: mean survival time, dose: 100.0 mg/kg/injection, schedule: Q01DX009 (ip), vehicle: saline sonified); 102 % of control (endpoint: mean survival time, dose: 200.0 mg/kg/injection, schedule: Q01DX009 (ip), vehicle: saline sonified); 103 % of control (endpoint: mean survival time, dose: 400.0 mg/kg/injection, schedule: Q01DX009 (ip), vehicle: saline sonified).
For the compound `O=C(Nc1ccc(Cl)c(Cl)c1)C(Cl)(Cl)Cl`, the T/C (endpoint: mean survival time, dose: 100.0 mg/kg/injection, schedule: Q01DX009 (ip), vehicle: saline + alcohol) was 91 % of control; the T/C (endpoint: mean survival time, dose: 200.0 mg/kg/injection, schedule: Q01DX009 (ip), vehicle: saline + alcohol) was 89 % of control; the T/C (endpoint: mean survival time, dose: 400.0 mg/kg/injection, schedule: Q01DX009 (ip), vehicle: saline + alcohol) is 91 % of control.
Turning to `Cc1cn(C2CC(O)C(CO)O2)c(=O)nc1NCC12CC3CC(CC(C3)C1)C2` (stereo not drawn), the T/C by setting is: (endpoint: median survival time, dose: 12.5 mg/kg/injection, schedule: Q01DX005 (ip), vehicle: distilled water + Tween-80) 105 % of control; (endpoint: median survival time, dose: 25.0 mg/kg/injection, schedule: Q01DX005 (ip), vehicle: distilled water + Tween-80) 104 % of control; (endpoint: median survival time, dose: 50.0 mg/kg/injection, schedule: Q01DX005 (ip), vehicle: distilled water + Tween-80) 102 % of control; (endpoint: median survival time, dose: 100.0 mg/kg/injection, schedule: Q01DX005 (ip), vehicle: distilled water + Tween-80) 94 % of control.
Regarding `CCCCCCCCCCCCCCCOc1ccc(OCCCCCCCCCCCCCC)cc1`, the T/C by setting is: under setting [3], 89 % of control; under setting [4], 88 % of control.
Take `c1ccc(Cn2cc(CCc3ccncc3)c3ccccc32)cc1`: the T/C was 88 % of control under setting [13], 93 % of control under setting [14], 91 % of control under setting [8] and 92 % of control under setting [9].
As for `Cc1ccc(NC(=O)Nc2ccc(S(N)(=O)=O)cc2)cc1C`, the T/C under setting [13] was 96 % of control, the T/C under setting [14] is 87 % of control and the T/C under setting [15] is 87 % of control.
Regarding `C/C(=N/O)c1ccc(O)cc1`, the T/C reads like this: under setting [8], 90 % of control; under setting [9], 100 % of control; under setting [10], 94 % of control.
As for `CC(=O)N(C)N=Nc1ccc(C(F)(F)F)cc1`, the T/C was 97 % of control under setting [16]; 102 % of control under setting [1]; 96 % of control under setting [17]; 105 % of control (endpoint: mean survival time, dose: 400.0 mg/kg/injection, schedule: Q04DX003 (ip), vehicle: Klucel (hydroxypropylcellulose) (HPC)).
For `O=C(O)CCc1nc(-c2cccc(Br)c2)n[nH]1`, the T/C reads like this: under setting [11], 96 % of control; under setting [12], 107 % of control; under setting [18], 103 % of control.
In the case of `CC(=O)N(C)N=Nc1ccc(Cl)cc1`, the T/C by setting is: (endpoint: mean survival time, dose: 25.0 mg/kg/injection, schedule: Q04DX003 (ip), vehicle: Klucel (hydroxypropylcellulose) (HPC)) 109 % of control; under setting [16], 105 % of control; under setting [1], 103 % of control; under setting [17], 100 % of control.
Regarding `O=C1OC2C(Cl)CC(Cl)CC2C=C1c1cccc([N+](=O)[O-])c1` (stereo not drawn), the T/C by setting is: under setting [14], 90 % of control; under setting [11], 90 % of control; under setting [15], 94 % of control; under setting [12], 90 % of control; (endpoint: mean survival time, dose: 400.0 mg/kg/injection, schedule: Q01DX009 (ip), vehicle: saline with Tween-80) 105 % of control; under setting [18], 94 % of control.
As to `CC([NH-])C[NH-].[Cl][Pt+2][Cl]` (stereo not drawn), the T/C is 105 % of control (endpoint: mean survival time, dose: 0.31 mg/kg/injection, schedule: Q01DX009 (ip), vehicle: saline with Tween-80); 107 % of control (endpoint: mean survival time, dose: 0.62 mg/kg/injection, schedule: Q01DX009 (ip), vehicle: saline with Tween-80); 112 % of control (endpoint: mean survival time, dose: 1.25 mg/kg/injection, schedule: Q01DX009 (ip), vehicle: saline with Tween-80); 105 % of control (endpoint: mean survival time, dose: 2.5 mg/kg/injection, schedule: Q01DX009 (ip), vehicle: saline with Tween-80); 115 % of control (endpoint: mean survival time, dose: 2.5 mg/kg/injection, schedule: Q04DX003 (ip), vehicle: saline with Tween-80); 86 % of control (endpoint: mean survival time, dose: 5.0 mg/kg/injection, schedule: Q01DX009 (ip), vehicle: saline with Tween-80). Further, under “endpoint: mean survival time, dose: 5.0 mg/kg/injection, schedule: Q04DX003 (ip), vehicle: saline with Tween-80”, the T/C is 115 % of control.
In the case of `O=c1oc(-c2ccc([N+](=O)[O-])cc2)nc2cc(Cl)ccc12`, the T/C is, setting by setting: under setting [13], 97 % of control; under setting [14], 108 % of control; under setting [15], 103 % of control.
Consider `CC(C)(O)CCC(C)(O)C1CCC2C3CCC4CC(O)CCC4(C)C3CCC21C` (stereo not drawn), for which the T/C is, setting by setting: under setting [2], 92 % of control; under setting [3], 93 % of control; under setting [4], 86 % of control.
For the compound `CC1(C)CN1P(=S)(N1CC1(C)C)N1CC1(C)C` (stereo not drawn), the T/C (endpoint: mean survival time, dose: 338.0 mg/kg/injection, schedule: Q01DX001 (ip), vehicle: other) was 190 % of control and 277 % of control.
On to `O=[C-]CC(=O)c1ccccc1.O=[C-]CC(=O)c1ccccc1.[Fe+2]`, for which the T/C is 95 % of control under setting [2], 87 % of control under setting [3] and 89 % of control under setting [4].
